Measurements as given in US10231956B2, “3-(1H-pyrrolo[3,2-C]pyridin-2-YL)-1 H-pyrazolo[4,3-B]pyridines and therapeutic uses thereof” (Samumed, LLC, priority 2015, dated 2019).

Tests used:
[1] = tested on: primary human fibroblasts derived from IPF patients (LL29 cells); test: Inhibition of fibrotic process: αSMA staining in TGF-β1 treated LL29 fibroblasts; format: cell-based; settings: Fibroblast; for EC50: 96 h, TGF-β1 20 ng/mL, 4 days, % cells positive for αSMA; for inhibition at 10 µM: given for EC50 >10 μM, TGF-β1, αSMA, read-out: percent inhibition at 10 μM
In short: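 LL29 cells at 1,500/well in F12 with 1% FBS, compounds at 1 μM–1.87 nM (11-point, 0.1% DMSO), TGF-β1 20 ng/mL added 1 h later, 4 days at 37 °C. SYTOX-positive cells excluded; % αSMA-positive cells by immunofluorescence imaging, normalized to TGF-β1/DMSO wells, triplicates fitted for EC50; above 10 μM, % inhibition at 10 μM given.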

[2] = tested on: IL-6; test: IL-6 inhibition in LPS-stimulated THP-1 cells (HTRF); format: cell-based; settings: Homo sapiens; for EC50: LPS 500 ng/mL, 22 hours, IL6 HTRF; for inhibition at 10 µM: given for EC50 >10 μM, LPS, IL6, 10 μM, read-out: percent inhibition at 10 μM

| EC50 [2] | Compound | EC50 [1] | inhibition at 10 µM [1] | inhibition at 10 µM [2] |
| --- | --- | --- | --- | --- |
| 0.045 µM | Cc1ccncc1-c1ccc2[nH]nc(-c3cc4c(-c5cc(F)cc(CNS(C)(=O)=O)c5)nccc4[nH]3)c2n1 [Compound 481, N-(3-Fluoro-5-(2-(5-(4-methylpyridin-3-yl)-1H-pyrazolo[4,3-b]pyridin-3-yl)-1H-pyrrolo[3,2-c]pyridin-4-yl)benzyl)methanesulfonamide] | 0.311 µM | – | – |
| > 10 µM | CS(=O)(=O)NCc1cc(F)cc(-c2nccc3[nH]c(-c4n[nH]c5ccc(-c6cncc(NC(=O)Cc7ccccc7)c6)nc45)cc23)c1 [Compound 486, N-(5-(3-(4-(3-Fluoro-5-(methylsulfonamidomethyl)phenyl)-1H-pyrrolo[3,2-c]pyridin-2-yl)-1H-pyrazolo[4,3-b]pyridin-5-yl)pyridin-3-yl)-2-phenylacetamide] | > 10 µM | 37.1% | 28.5% |
| 0.162 µM | CS(=O)(=O)NCc1cc(F)cc(-c2nccc3[nH]c(-c4n[nH]c5ccc(-c6cncc(NC(=O)C7CCCC7)c6)nc45)cc23)c1 [Compound 498, N-(5-(3-(4-(3-Fluoro-5-(methylsulfonamidomethyl)phenyl)-1H-pyrrolo[3,2-c]pyridin-2-yl)-1H-pyrazolo[4,3-b]pyridin-5-yl)pyridin-3-yl)cyclopentanecarboxamide] | > 10 µM | 34.8% | – |
| 0.542 µM | CS(=O)(=O)NCc1cc(F)cc(-c2nccc3[nH]c(-c4n[nH]c5ccc(-c6cncc(NC(=O)C7CCCCC7)c6)nc45)cc23)c1 [Compound 499, N-(5-(3-(4-(3-Fluoro-5-(methylsulfonamidomethyl)phenyl)-1H-pyrrolo[3,2-c]pyridin-2-yl)-1H-pyrazolo[4,3-b]pyridin-5-yl)pyridin-3-yl)cyclohexanecarboxamide] | 0.958 µM | – | – |
| 0.349 µM | CS(=O)(=O)NCc1cc(F)cc(-c2nccc3[nH]c(-c4n[nH]c5ccc(-c6cncc(CN7CCC(F)(F)C7)c6)nc45)cc23)c1 [Compound 502, N-(3-(2-(5-(5-((3,3-Difluoropyrrolidin-1-yl)methyl)pyridin-3-yl)-1H-pyrazolo[4,3-b]pyridin-3-yl)-1H-pyrrolo[3,2-c]pyridin-4-yl)-5-fluorobenzyl) methanesulfonamide] | 0.218 µM | – | – |
| > 10 µM | CS(=O)(=O)NCc1cc(F)cc(-c2nccc3[nH]c(-c4n[nH]c5ccc(-c6cncnc6)nc45)cc23)c1 [Compound 503, N-(3-Fluoro-5-(2-(5-(pyrimidin-5-yl)-1H-pyrazolo[4,3-b]pyridin-3-yl)-1H-pyrrolo [3,2-c]pyridin-4-yl)benzyl)methanesulfonamide] | > 10 µM | 0% | 7.6% |
| > 10 µM | CS(=O)(=O)NCc1cc(F)cc(-c2nccc3[nH]c(-c4n[nH]c5ccc(-c6ccccn6)nc45)cc23)c1 [Compound 504, N-(3-Fluoro-5-(2-(5-(pyridin-2-yl)-1H-pyrazolo[4,3-b]pyridin-3-yl)-1H-pyrrolo[3,2-c]pyridin-4-yl)benzyl)methanesulfonamide] | 1.94 µM | – | 0% |
| > 10 µM | Fc1cccc(-c2nccc3[nH]c(-c4n[nH]c5ccc(-c6cncc(OCc7ccccc7)c6)nc45)cc23)c1 [Compound 518, 5-(5-(Benzyloxy)pyridin-3-yl)-3-(4-(3-fluorophenyl)-1H-pyrrolo[3,2-c]pyridin-2-yl)-1H-pyrazolo[4,3-b]pyridine] | 1.04 µM | – | 27.5% |
| 0.724 µM | Fc1ccc(-c2nccc3[nH]c(-c4n[nH]c5ccc(-c6cncc(OC7CCNCC7)c6)nc45)cc23)cc1 [Compound 528, 3-(4-(4-Fluorophenyl)-1H-pyrrolo[3,2-c]pyridin-2-yl)-5-(5-(piperidin-4-yloxy)pyridin-3-yl)-1H-pyrazolo[4,3-b]pyridine] | 1.44 µM | – | – |
| 0.103 µM | Fc1ccccc1-c1nccc2[nH]c(-c3n[nH]c4ccc(-c5cn[nH]c5)nc34)cc12 [Compound 539, 3-(4-(2-Fluorophenyl)-1H-pyrrolo[3,2-c]pyridin-2-yl)-5-(1H-pyrazol-4-yl)-1H-pyrazolo[4,3-b]pyridine] | 0.033 µM | – | – |
| > 10 µM | Cc1ncc(-c2ccc3[nH]nc(-c4cc5c(-c6ccncc6)nccc5[nH]4)c3n2)n1C [Compound 573, 5-(1,2-Dimethyl-1H-imidazol-5-yl)-3-(4-(pyridin-4-yl)-1H-pyrrolo[3,2-c]pyridin-2-yl)-1H-pyrazolo[4,3-b]pyridine] | 0.073 µM | – | 0% |
| 1.79 µM | c1cc2[nH]c(-c3n[nH]c4ccc(-c5cncc(OC6CCCCC6)c5)nc34)cc2c(N2CCCCC2)n1 [Compound 607, 5-(5-(Cyclohexyloxy)pyridin-3-yl)-3-(4-(piperidin-1-yl)-1H-pyrrolo[3,2-c]pyridin-2-yl)-1H-pyrazolo[4,3-b]pyridine] | > 10 µM | 25.4% | – |
| 2.95 µM | O=C(CC1CCNCC1)Nc1cncc(-c2ccc3[nH]nc(-c4cc5c(N6CCCCC6)nccc5[nH]4)c3n2)c1 [Compound 609, N-(5-(3-(4-(Piperidin-1-yl)-1H-pyrrolo[3,2-c]pyridin-2-yl)-1H-pyrazolo[4,3-b]pyridin-5-yl)pyridin-3-yl)-2-(piperidin-4-yl)acetamide] | 1.08 µM | – | – |
| > 10 µM | CN1CCN(c2nccc3[nH]c(-c4n[nH]c5ccc(-c6cncc(NC(=O)CC7CCNCC7)c6)nc45)cc23)CC1 [Compound 641, N-(5-(3-(4-(4-Methylpiperazin-1l-yl)-1H-pyrrolo[3,2-c]pyridin-2-yl)-1H-pyrazolo[4,3-b]pyridin-5-yl)pyridin-3-yl)-2-(piperidin-4-yl)acetamide] | 5 µM | – | 20.6% |
| 1.07 µM | c1cc2[nH]c(-c3n[nH]c4ccc(-c5cncc(OCCN6CCCC6)c5)nc34)cc2cn1 [Compound 658, 5-(5-(2-(Pyrrolidin-1-yl)ethoxy)pyridin-3-yl)-3-(1H-pyrrolo[3,2-c]pyridin-2-yl)-1H-pyrazolo[4,3-b]pyridine] | 4.75 µM | – | – |
